Measured values as given in US10167300B2, “Metalloenzyme inhibitor compounds as fungicides” (priority 2014, dated 2019).
Like-named read-outs stand apart in the source and are kept apart here.

Experiment: Type B (low volume, EC formulation, track sprayer 200 L/ha) assay, leaf blotch of wheat, SEPTTR field isolate (FI SEPTTR)
Format: in vivo, Mycosphaerella graminicola on wheat plants (variety Yuma)
Conditions: Zymoseptoria tritici, 72 h
Method: Example A: Evaluation of Fungicidal Activity: Leaf Blotch of Wheat (Mycosphaerella graminicola; Anamorph: Septoria tritici; Bayer Code SEPTTR)
For Type A assays, technical grades of the experimental fungicides in Table 4 below were dissolved in acetone, and then mixed with nine volumes of water containing 110 ppm Triton X-100. The fungicide solutions were applied onto wheat seedlings using an automated booth sprayer. For Type B assays, emulsifiable concentrate (EC) formulations of technical grades of the experimental fungicides in Table 4 below were prepared at 10% (w/v), and then mixed with 150 volumes of 0.1% Trycol 5941. These solutions were applied onto wheat seedlings using an automated track sprayer at 200 L/ha. All sprayed plants were allowed to air dry prior to further handling.
Wheat plants (variety Yuma) were grown from seed in a greenhouse in 50% mineral soil/50% soil-less Metro mix until the first leaf was fully emerged, with 7-10 seedlings per pot. Prior to or after application of experimental fungicides, plants were inoculated either with spores of a standard laboratory SEPTTR isolate (SI SEPTTR) or with spores from a SEPTTR field isolate collected from Wellsbourne, England in 2012 (FI SEPTTR). After inoculation the plants were kept for 3 days at 20° C. in 100% relative humidity (one day in a dark dew chamber followed by two days in a lighted dew chamber). Plants were then transferred to a 20° C. greenhouse for disease development. When disease symptoms were fully expressed on untreated plants, infection levels on treated plants were assessed on a scale of 0 to 100 percent disease severity. Percent disease control was calculated using the ratio of disease severity on treated plants relative to untreated plants.

[1] = field isolate, low volume EC, 100 g/ha, 3 Day Curative, wheat (Yuma), read-out: Disease Control, FI SEPTTR Type B Assay (100 g/ha) 3 DC
[2] = field isolate, low volume EC, 100 g/ha, 3 Day Protectant, wheat (Yuma), read-out: Disease Control, FI SEPTTR Type B Assay (100 g/ha) 3 DP
[3] = SEPTTR field isolate, low volume Type B assay, 100 g/ha, 3 Day Curative, wheat leaf blotch, read-out: Disease Control, FI SEPTTR Type B Assay (100 g/ha) 3 DC
[4] = SEPTTR field isolate, low volume Type B assay, 100 g/ha, 3 Day Protectant, wheat leaf blotch, read-out: Disease Control, FI SEPTTR Type B Assay (100 g/ha) 3 DP

SMILES	pest or weed control at 100 g/ha [1]	pest or weed control at 100 g/ha [2]	pest or weed control at 100 g/ha [3]	pest or weed control at 100 g/ha [4]	other results
COc1ncncc1C(O)(c1ccc(-c2ccc(OC(F)(F)F)cc2C)cn1)C(C)(C)C (stereo not drawn) [Compound 222]	40 to 59%	60 to 79%	–	–	–
Cc1cc(C(C)(C)C#N)ccc1-c1ccc(C(O)(c2cncnc2)C(C)(C)C)nc1 (stereo not drawn) [Compound 223]	80 to 100%	80 to 100%	–	–	–
Cc1cc(OC(F)(F)F)ccc1-c1ccc(C(O)(c2cnccn2)C(C)(C)C)nc1 (stereo not drawn) [Compound 224]	40 to 59%	60 to 79%	–	–	–
CC(C)(C)C(O)(c1ccc(-c2ccc(OCC(F)(F)F)cc2)cn1)c1cnccn1 (stereo not drawn) [Compound 225]	80 to 100%	60 to 79%	–	–	–
CC(C)(C#N)c1ccc(-c2ccc(C(O)(c3cncnc3)C(C)(C)C)nc2)c(F)c1 (stereo not drawn) [Compound 226]	80 to 100%	80 to 100%	–	–	–
CC(C)(C)C(O)(Cc1cccnc1)c1ccc(-c2ccc(C3(C#N)CC3)cc2)cn1 (stereo not drawn) [Compound 227]	< 40%	40 to 59%	–	–	–
COC(c1cncnc1)(c1ccc(-c2ccc(C(C)(C)C#N)cc2F)cn1)C(C)(C)C (stereo not drawn) [Compound 228]	80 to 100%	80 to 100%	–	–	–
CC(C)(C)C(O)(c1ccc(-c2ccc(C3(C#N)CC3)cc2)cn1)c1cnccn1 (stereo not drawn) [Compound 229]	60 to 79%	60 to 79%	–	–	–
CC(C)C(O)(c1cncnc1)c1ccc(-c2ccc(OC(F)(F)F)cc2F)cn1 (stereo not drawn) [Compound 230]	< 40%	80 to 100%	–	–	–
CCOC(c1cncnc1)(c1ccc(-c2ccc(OC(F)(F)F)cc2)cn1)C1CC1 (stereo not drawn) [Compound 232]	< 40%	60 to 79%	–	–	–
COc1ncncc1C(O)(c1ccc(-c2ccc(C3(C#N)CC3)cc2F)cn1)C(C)(C)C (stereo not drawn) [Compound 233]	80 to 100%	80 to 100%	–	–	–
CC(C)(C)C(O)(Cc1cccnc1)c1ccc(-c2ccc(OCC(F)(F)F)nc2)cn1 (stereo not drawn) [Compound 234]	40 to 59%	60 to 79%	–	–	–
CC(C)(C)C(O)(c1ccc(-c2ccc(OC(F)(F)F)cc2)cn1)c1cccnc1Cl (stereo not drawn) [Compound 235]	60 to 79%	80 to 100%	–	–	–
CC(C)(C)C(O)(c1cncnc1)c1ccc(-c2ccc(C3(C#N)CC3)cc2F)cn1 (stereo not drawn) [Compound 236]	80 to 100%	80 to 100%	–	–	–
C#CCOC(C)(c1cncnc1)c1ccc(-c2ccc(OC(F)(F)F)cc2F)cn1 (stereo not drawn) [Compound 237]	< 40%	40 to 59%	–	–	–
C#CCOC(CC)(c1cncnc1)c1ccc(-c2ccc(OC(F)(F)F)cc2F)cn1 (stereo not drawn) [Compound 238]	60 to 79%	< 40%	–	–	–
Cc1cc(C(C)(C)C#N)cnc1-c1ccc(C(O)(c2cncnc2)C(C)(C)C)nc1 (stereo not drawn) [Compound 239]	80 to 100%	80 to 100%	–	–	–
COc1ncncc1C(O)(c1ccc(-c2ccc(C(C)(C)C#N)cc2)cn1)C(C)(C)C (stereo not drawn) [Compound 240]	80 to 100%	80 to 100%	–	–	–
COC(C)(c1cncnc1)c1ccc(-c2ccc(OC(F)(F)F)cc2)cn1 (stereo not drawn) [Compound 241]	< 40%	40 to 59%	–	–	–
CC#CC(OCC)(c1cncnc1)c1ccc(-c2ccc(OC(F)(F)F)cc2)cn1 (stereo not drawn) [Compound 242]	< 40%	40 to 59%	–	–	–
C#CCOC(O)(c1cncnc1)c1ccc(-c2ccc(OC(F)(F)F)cc2)cn1 (stereo not drawn) [Compound 243]	< 40%	80 to 100%	–	–	–
CCOC(CC)(c1cncnc1)c1ccc(-c2ccc(OC(F)(F)F)cc2)cn1 (stereo not drawn) [Compound 244]	< 40%	40 to 59%	–	–	–
COc1ncncc1C(O)(c1ccc(-c2ccc(C(C)(F)F)cc2)cn1)C(C)(C)C (stereo not drawn) [Compound 246]	60 to 79%	80 to 100%	–	–	–
COc1ncncc1C(O)(c1ccc(-c2ccc(Cl)cc2)cn1)C(C)(C)C (stereo not drawn) [Compound 247]	< 40%	80 to 100%	–	–	–

SMILES	pest or weed control at 100 g/ha [1]	pest or weed control at 100 g/ha [2]	pest or weed control at 100 g/ha [3]	pest or weed control at 100 g/ha [4]	other results
C#CCOC(C#CC)(c1cncnc1)c1ccc(-c2ccc(OC(F)(F)F)cc2F)cn1 (stereo not drawn) [Compound 248]	< 40%	40 to 59%	–	–	–
COC(c1cncnc1)(c1ccc(-c2ccc(OC(F)(F)F)cc2F)cn1)C(C)C (stereo not drawn) [Compound 249]	60 to 79%	80 to 100%	–	–	–
C#CCOC(c1cncnc1)(c1ccc(-c2ccc(OC(F)(F)F)cc2F)cn1)C1CC1 (stereo not drawn) [Compound 250]	< 40%	80 to 100%	–	–	–
CC(C)(C)C(O)(c1cncnc1)c1ccc(-c2ccc(C3(C#N)CCC3)cc2F)cn1 (stereo not drawn) [Compound 251]	80 to 100%	80 to 100%	–	–	–
Cc1cc(C(C)(C)C#N)cc(C)c1-c1ccc(C(O)(c2cncnc2)C(C)(C)C)nc1 (stereo not drawn) [Compound 252]	80 to 100%	80 to 100%	–	–	–
COC(c1cncnc1)(c1ccc(-c2ccc(OCC(F)(F)F)nc2)cn1)C(C)(C)C (stereo not drawn) [Compound 253]	80 to 100%	80 to 100%	–	–	–
C#CCOC(c1cncnc1)(c1ccc(-c2ccc(OC(F)(F)F)cc2)cn1)C1CC1 (stereo not drawn) [Compound 255]	< 40%	60 to 79%	–	–	–
COc1ncncc1C(O)(c1ccc(-c2ccc(C(C)(C)C#N)cc2F)cn1)C(C)(C)C (stereo not drawn) [Compound 256]	80 to 100%	80 to 100%	–	–	–
COC(c1cncnc1)(c1ccc(-c2ccc(OCC(F)(F)F)cc2)cn1)C(C)(C)C (stereo not drawn) [Compound 257]	–	–	60 to 79%	60 to 79%	–
CCC(O)(c1cncnc1)c1ccc(-c2ccc(OC(F)(F)F)cc2)cn1 (stereo not drawn) [Compound 258]	–	–	< 40%	60 to 79%	–
CC(C)(C#N)c1ccc(-c2ccc(C(O[Si](C)(C)C)(c3cncnc3)C(C)(C)C)nc2)cc1 (stereo not drawn) [Compound 259]	–	–	–	–	pest or weed control at 100 g/ha (read-out: Disease Control, FI SEPTTR Type B Assay (100 g/ha) 3 DC): 60 to 79%; pest or weed control at 100 g/ha (read-out: Disease Control, FI SEPTTR Type B Assay (100 g/ha) 3 DP): 80 to 100%
C#CCOC(CC)(c1cncnc1)c1ccc(-c2ccc(OC(F)(F)F)cc2)cn1 (stereo not drawn) [Compound 260]	–	–	< 40%	40 to 59%	–
COC(c1cncnc1)(c1ccc(-c2ccc(OC(F)(F)F)cc2C)cn1)C(C)(C)C (stereo not drawn) [Compound 261]	–	–	80 to 100%	80 to 100%	–
CC(C)(C#N)c1ccc(-c2ccc(C(O)(c3cncc(F)c3)C(C)(C)C)nc2)cc1 (stereo not drawn) [Compound 262]	–	–	80 to 100%	80 to 100%	–
COc1cc(C(C)(C)C#N)ccc1-c1ccc(C(O)(c2cncnc2)C(C)(C)C)nc1 (stereo not drawn) [Compound 263]	–	–	80 to 100%	80 to 100%	–
CCC(C#N)(CC)c1ccc(-c2ccc(C(O)(c3cncnc3)C(C)(C)C)nc2)c(C)c1 (stereo not drawn) [Compound 264]	–	–	80 to 100%	80 to 100%	–
CC(C)(C#N)c1ccc(-c2ccc(C(O)(c3cncnc3)C(C)(C)C)nc2)c(Cl)c1 (stereo not drawn) [Compound 265]	–	–	80 to 100%	80 to 100%	–
CC#CC(O)(c1cncnc1)c1ccc(-c2ccc(OC(F)(F)F)cc2)cn1 (stereo not drawn) [Compound 266]	–	–	< 40%	60 to 79%	–
COC(c1cncnc1)(c1ccc(-c2ccc(C(C)(C)C#N)cc2C)cn1)C(C)(C)C (stereo not drawn) [Compound 267]	–	–	60 to 79%	80 to 100%	–
CCC(C#N)(CC)c1ccc(-c2ccc(C(O)(c3cncnc3)C(C)(C)C)nc2)c(F)c1 (stereo not drawn) [Compound 268]	–	–	80 to 100%	80 to 100%	–
CCC(OC)(c1cncnc1)c1ccc(-c2ccc(OC(F)(F)F)cc2F)cn1 (stereo not drawn) [Compound 269]	–	–	40 to 59%	80 to 100%	–
C#CCOC(C#CC)(c1cncnc1)c1ccc(-c2ccc(OC(F)(F)F)cc2)cn1 (stereo not drawn) [Compound 270]	–	–	< 40%	40 to 59%	–
CC(C)(C)C(O)(c1ccc(-c2ccc(OC(F)(F)F)cc2F)cn1)c1cnccn1 (stereo not drawn) [Compound 271]	–	–	< 40%	80 to 100%	–
CCOC(c1cncnc1)(c1ccc(-c2ccc(OC(F)(F)F)cc2)cn1)C(C)C (stereo not drawn) [Compound 272]	–	–	< 40%	60 to 79%	–
